In article PMC9721424, “Novel N-methylsulfonyl-indole derivatives: biological activity and COX-2/5-LOX inhibitory effect with improved gastro protective profile and reduced cardio vascular risks” (Journal of Enzyme Inhibition and Medicinal Chemistry, 2022):
Where “and” joins values, the source holds several entries; their conditions need not be identical. Equal values may be shown once. Read-outs that look alike come from different tables or passages of the source.

Tests used:
ovine COX-1 = target: T1, ovine COX-1 (Ovis aries, UniProt P05979); experiment: COX-1 inhibition, enzyme immune assay (EIA) kit
T1 sequence (P05979 25-600): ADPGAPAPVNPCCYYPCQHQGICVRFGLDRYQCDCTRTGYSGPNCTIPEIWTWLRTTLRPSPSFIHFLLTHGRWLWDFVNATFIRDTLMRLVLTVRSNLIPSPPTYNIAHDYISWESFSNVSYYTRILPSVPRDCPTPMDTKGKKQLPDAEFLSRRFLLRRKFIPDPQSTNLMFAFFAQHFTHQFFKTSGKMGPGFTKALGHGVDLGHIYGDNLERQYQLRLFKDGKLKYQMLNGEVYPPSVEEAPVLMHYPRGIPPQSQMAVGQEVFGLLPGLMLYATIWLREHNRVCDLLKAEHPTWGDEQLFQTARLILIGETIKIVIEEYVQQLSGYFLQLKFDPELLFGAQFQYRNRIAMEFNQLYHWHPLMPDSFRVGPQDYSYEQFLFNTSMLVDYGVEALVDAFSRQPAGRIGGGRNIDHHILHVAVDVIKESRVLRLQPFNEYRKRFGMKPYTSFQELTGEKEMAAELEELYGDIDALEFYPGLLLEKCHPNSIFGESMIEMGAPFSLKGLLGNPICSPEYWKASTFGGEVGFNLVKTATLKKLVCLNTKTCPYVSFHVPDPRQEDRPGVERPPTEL
Description: Colorimetric enzyme immunoassay (EIA) kits were done to screen for the isozyme-specific inhibition.

5-LOX enzyme = target: T2, 5-LOX enzyme (Homo sapiens, UniProt P09917); experiment: 5-LOX inhibition, Human Lipoxygenase Inhibitor Screening Assay (EIA) kit; assay type: biochemical
T2 construct: purchased Cayman Chemical K980-100
T2 sequence (P09917 1-674): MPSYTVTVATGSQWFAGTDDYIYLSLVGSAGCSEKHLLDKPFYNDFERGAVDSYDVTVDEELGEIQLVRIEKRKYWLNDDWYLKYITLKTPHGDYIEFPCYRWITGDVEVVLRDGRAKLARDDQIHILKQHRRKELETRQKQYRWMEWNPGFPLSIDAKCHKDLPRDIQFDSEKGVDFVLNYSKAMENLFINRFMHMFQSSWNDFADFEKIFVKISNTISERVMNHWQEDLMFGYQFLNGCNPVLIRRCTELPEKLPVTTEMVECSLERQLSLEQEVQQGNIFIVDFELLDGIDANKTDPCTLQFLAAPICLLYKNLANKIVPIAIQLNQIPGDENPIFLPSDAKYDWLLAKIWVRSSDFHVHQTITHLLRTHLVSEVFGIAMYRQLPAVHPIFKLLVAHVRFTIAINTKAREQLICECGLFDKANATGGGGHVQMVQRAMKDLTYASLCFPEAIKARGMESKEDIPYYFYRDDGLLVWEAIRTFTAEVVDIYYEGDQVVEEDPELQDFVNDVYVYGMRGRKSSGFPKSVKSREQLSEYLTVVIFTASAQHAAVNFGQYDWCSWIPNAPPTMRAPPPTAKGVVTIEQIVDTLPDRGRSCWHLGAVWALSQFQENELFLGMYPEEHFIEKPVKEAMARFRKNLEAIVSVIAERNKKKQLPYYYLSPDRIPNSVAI
Protocol: The ability of the test compounds to inhibit the 5-LOX enzyme (IC50 value, μM) was detected using the Cayman Human Lipoxygenase Inhibitor Screening Assay (EIA) kit (catalog no. K980-100, Cayman Chemical). The IC50 values of test compounds were measured in µM according to the manufacturer’s instructions and reported method.

COX-2 = target: T3, COX-2 (Ovis aries, UniProt P79208); experiment: COX-2 inhibition, enzyme immune assay (EIA) kit; assay type: biochemical, ovine; conditions: for S.I (IC50 COX-1/IC50 COX-2): COX-2 selectivity index; for SI: lab report, COX1/COX2
T3 sequence (P79208 17-603): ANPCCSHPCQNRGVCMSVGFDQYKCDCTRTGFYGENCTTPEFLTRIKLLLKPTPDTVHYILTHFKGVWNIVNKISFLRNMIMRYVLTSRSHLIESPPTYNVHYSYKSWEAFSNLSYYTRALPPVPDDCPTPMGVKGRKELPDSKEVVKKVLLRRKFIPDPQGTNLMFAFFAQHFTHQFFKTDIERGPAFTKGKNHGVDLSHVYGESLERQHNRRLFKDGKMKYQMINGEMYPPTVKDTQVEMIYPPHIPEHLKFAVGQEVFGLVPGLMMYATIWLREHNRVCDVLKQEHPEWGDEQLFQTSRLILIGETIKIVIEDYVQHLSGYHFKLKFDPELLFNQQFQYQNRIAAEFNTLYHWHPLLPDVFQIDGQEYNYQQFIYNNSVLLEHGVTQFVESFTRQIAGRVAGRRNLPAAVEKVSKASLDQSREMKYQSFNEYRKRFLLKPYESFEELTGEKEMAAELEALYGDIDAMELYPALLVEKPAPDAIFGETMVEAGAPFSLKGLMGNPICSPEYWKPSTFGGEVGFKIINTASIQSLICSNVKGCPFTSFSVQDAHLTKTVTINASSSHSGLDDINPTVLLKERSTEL

DPPH free radical assay = assay type: biochemical; conditions: 540 nm, relative to Trolox; for DPPH test results (µM trolox equivalent/ 1mg sample ± SD): 30 min; for DPPH anti-oxidant activity: values in text
Protocol: Preparation of samples was occurred at the following concentrations: Samples 3a, 4a, 5b, 5d and 5e at final concentrations of 0.5 mg/ml in methanol: DMSO 9:1 v/v. Samples 4b and 4d at final concentrations 0.025 mg/ml in methanol: DMSO 9:1 v/v, sample 5a at final concentrations 0.25 mg/ml in methanol: DMSO 9:1 v/v, Sample 4c, 5c and 4e at final concentrations 0.05 mg/ml in methanol: DMSO 9:1 v/v, sample 3b at final concentration 0.75 mg/ml methanol: DMSO 9:1 v/v. A stock solution of 100 µM concentration of Trolox, a standard used in this experiment, was prepared in methanol from which seven concentrations were prepared, including 50, 40, 30, 20, 15, 10 and 5 µM.
The DPPH (2,2-diphenyl-1-picryl-hydrazyl-hydrate) free radical assay was carried out according to the method of Boly et al. 2016[39]. Briefly, freshly prepared DPPH reagent (100 µl, 0.1% in methanol) was added to 100 µl of the sample on 96 well plates (n = 6). The reaction was incubated at room temp for 30 min in the dark. After completion of the incubation time, the reduction in DPPH colour intensity was measured at 540 nm. Data obtained was represented as means ± SD, according to the following equation, percentage inhibition = [(Average absorbance of blank – average absorbance of the test)/(Average absorbance of blank)] *100. The results were recorded using a microplate reader, FluoStar Omega.
Microsoft Excel® was used to analyse the obtained results. The IC50 values were calculated using Graph pad Prism 6® by converting the concentrations to their logarithmic value and selecting the non-linear inhibitor regression equation (log (inhibitor) vs. normalised response – variable slope equation). The methods used and the final test report (R-SO7320) were obtained from Nawah Scientific.

SMILES	melting point [°C]	IC50 (ovine COX-1; IC50 COX-1) [µM]	COX1 %inh (ovine COX-1; conc 0.1 (μM)) [%]	COX1 %inh (ovine COX-1; conc 1 (μM)) [%]	COX1 %inh (ovine COX-1; conc 10 (μM)) [%]	COX1 %inh (ovine COX-1; conc 100 (μM)) [%]	IC50 (5-LOX enzyme) [µM]	5-LOX %inh (5-LOX enzyme; conc 0.1 (μM)) [%]	5-LOX %inh (5-LOX enzyme; conc 1 (μM)) [%]	5-LOX %inh (5-LOX enzyme; conc 10 (μM)) [%]	5-LOX %inh (5-LOX enzyme; conc 100 (μM)) [%]	S.I (IC50 COX-1/IC50 COX-2) (COX-2)	SI (COX-2)	DPPH test results (µM trolox equivalent/ 1mg sample ± SD) (DPPH free radical assay)	IC50 (5-LOX enzyme; lab report) [µM]	DPPH anti-oxidant activity (DPPH free radical assay)	IC50 (ovine COX-1; read-out: IC50 COX-1) [µM]
CS(=O)(=O)n1cc(/C=N/NC(N)=O)c2ccccc21 [Compound 3a, (E)-2{[1-(methylsulfonyl)-1H-indol-3yl]methylene}hydrazinecarboxamide]	238 to 240	21.1 ± 0.6	4.87	12.4	37.8	71	48.8 ± 2.58	2.63	5.83	18.6	70.3	0.78	0.779	5.91 ± 1.87 µM trolox equivalent/ 1mg sample	–	–	–
CS(=O)(=O)n1cc(/C=N/NC(N)=S)c2ccccc21 [Compound 4a, (E)-2{[1-(methylsulfonyl)-1H-indol-3yl]methylene}-hydrazine-1-carbothioamide]	178 to 180	11.3 ± 0.32	7.54	18.6	44	77.6	2.31 ± 0.12	11.4	43.6	69	90.3	2.80	2.799	24.55 ± 1.61 µM trolox equivalent/ 1mg sample	2.31 ± 0.12	–	–
CS(=O)(=O)n1cc(/C=N/NC(=S)Nc2ccccc2)c2ccccc21 [Compound 4c, (E)-2{[1-(methylsulfonyl)-1H-indol-3yl]methylene}-N-phenylhydrazinecarbothioamide]	220 to 222	5.01 ± 0.14	11	24.7	60.6	83.5	4.03 ± 0.21	12.1	37.1	57.1	83.8	3.12	3.116	263.29 ± 12.30 µM trolox equivalent/ 1mg sample	4.03 ± 0.21	about 263.29 µM Trolox equivalent/mg	–
CS(=O)(=O)n1cc(/C=N/N=C2\SC(=O)CN2c2ccccc2)c2ccccc21 [Compound 5c]	260 to 262	–	4.55	10.5	27.9	72.1	79.4 ± 4.2	2.32	5.84	13	66.7	3.63	3.628	707.52 ± 49.91 µM trolox equivalent/ 1mg sample	–	707.52 µM Trolox equivalent/mg and 707.5 µM Trolox equivalent/mg	29.2 ± 0.83
COc1ccc(N2CC(=O)S/C2=N\N=C\c2cn(S(C)(=O)=O)c3ccccc23)cc1 [Compound 5e]	273 to 275	–	3.76	13.1	20	68.5	6.65 ± 0.35	11.6	24.1	53	80.8	9.72 and 9.73	9.726	13.22 ± 1.89 µM trolox equivalent/ 1mg sample	6.65 ± 0.35	–	47.5 ± 1.35
CC(c1cc2ccccc2s1)N(O)C(N)=O (centres unmarked) [Zileuton, reference compound]	–	–	–	–	–	–	–	–	–	77.1	92.8	–	–	–	–	–	–
